Structures are written as SMILES. Counter-ions that a name gives are not always drawn.

The test addresses T1, Recombinant human IKKβ (residues 1-737) (Homo sapiens, UniProt O14920).
T1 construct: Recombinant human IKKβ (residues 1-737); GST (C); made in house
T1 sequence (O14920 1-737): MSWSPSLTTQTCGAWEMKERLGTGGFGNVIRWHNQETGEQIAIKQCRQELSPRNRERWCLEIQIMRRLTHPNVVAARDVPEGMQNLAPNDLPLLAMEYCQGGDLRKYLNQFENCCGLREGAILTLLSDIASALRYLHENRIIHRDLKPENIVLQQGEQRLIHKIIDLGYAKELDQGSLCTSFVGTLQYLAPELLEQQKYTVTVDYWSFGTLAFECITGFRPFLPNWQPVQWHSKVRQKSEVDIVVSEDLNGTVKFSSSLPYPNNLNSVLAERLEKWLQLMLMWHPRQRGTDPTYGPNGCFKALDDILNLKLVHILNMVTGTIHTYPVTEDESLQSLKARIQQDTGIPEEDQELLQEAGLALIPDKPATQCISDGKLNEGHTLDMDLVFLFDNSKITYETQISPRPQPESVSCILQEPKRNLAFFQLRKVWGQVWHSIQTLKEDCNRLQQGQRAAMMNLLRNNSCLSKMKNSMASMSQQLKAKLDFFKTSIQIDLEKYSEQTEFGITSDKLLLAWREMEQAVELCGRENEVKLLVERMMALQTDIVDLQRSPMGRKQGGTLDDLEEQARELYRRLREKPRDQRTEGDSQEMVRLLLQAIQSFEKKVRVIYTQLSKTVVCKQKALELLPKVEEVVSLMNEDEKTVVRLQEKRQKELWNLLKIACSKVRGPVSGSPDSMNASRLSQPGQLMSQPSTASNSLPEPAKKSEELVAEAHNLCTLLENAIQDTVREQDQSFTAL
Description: IKK2 assay (TR-FRET). The conditions noted are these: ATP 1 μM final, read-out: pIC50 against IKK2 (converted). It is filed as biochemical. The procedure: Recombinant human IKKβ (residues 1-737) was expressed in baculovirus as a C-terminal GST-tagged fusion protein, and its activity was assessed using a time-resolved fluorescence resonance energy transfer (TR-FRET) assay. Briefly, IKK2 (0.5 nM-5 nM final) diluted in assay buffer (50 mM HEPES, 10 mM MgCl2, 1 mM CHAPS pH 7.4 with 1 mM DTT and 0.01% w/v BSA) was added to wells containing various concentrations of compound or DMSO vehicle (1.7% final). The reaction was initiated by the addition of GST-IB substrate (25 nM final)/ATP (1 μM final), in a total volume of 6 μl. The reaction was incubated for 15 minutes at room temperature, then terminated by the addition of 3 μl of detection reagent in buffer containing 50 mM EDTA (100 mM HEPES pH 7.4, 150 mM NaCl, 50 mM EDTA and 0.01% w/v BSA) containing antiphosphoserine-IB-32/36 monoclonal antibody 12C2 (Cell Signalling Technology, Beverly Mass., USA) labelled with W-1024 europium chelate (Wallac OY, Turku, Finland), and an APC-labelled anti-GST antibody (Prozyme, San Leandro, Calif., USA) was added and the reaction was further incubated for 60 minutes at room temperature. The degree of phosphorylation of GST-IB was measured using a BMG Rubystar plate reader (BMG Labtech, Aylesbury, UK) as a ratio of specific 665 nm energy transfer signal to reference europium 620 nm signal.
Consider `CCS(=O)(=O)N1CCC(c2c[nH]c3c(C(N)=O)cc(-c4cc(F)cc(CNC(C)C)c4)cc23)CC1` [Example 285, 3-[1-(ethylsulfonyl)-4-piperidinyl]-5-(3-fluoro-5-{[(1-methylethyl)amino]methyl}phenyl)-1H-indole-7-carboxamide trifluoroacetate], for which the IC50 was ≤ 10 µM.

With `CCS(=O)(=O)N1CCC(c2c[nH]c3c(C(N)=O)cc(-c4cc(F)cc(CNCC(C)C)c4)cc23)CC1` [Example 286, 3-[1-(ethylsulfonyl)-4-piperidinyl]-5-(3-fluoro-5-{[(2-methylpropyl)amino]methyl}phenyl)-1H-indole-7-carboxamide trifluoroacetate], the IC50 is ≤ 10 µM.

In the case of `CCS(=O)(=O)N1CCC(c2c[nH]c3c(C(N)=O)cc(-c4cc(F)cc(CNC5CCC5)c4)cc23)CC1` [Example 287, 5-{3-[(cyclobutylamino)methyl]-5-fluorophenyl}-3-[1-(ethylsulfonyl)-4-piperidinyl]-1H-indole-7-carboxamide trifluoroacetate], the IC50 is ≤ 10 µM.

As for `CCS(=O)(=O)N1CCC(c2c[nH]c3c(C(N)=O)cc(-c4cc(F)cc(CN(C)C)c4)cc23)CC1` [Example 288, 5-{3-[(dimethylamino)methyl]-5-fluorophenyl}-3-[1-(ethylsulfonyl)-4-piperidinyl]-1H-indole-7-carboxamide trifluoroacetate], the IC50 is ≤ 10 µM.

For `CCS(=O)(=O)N1CCC(c2c[nH]c3c(C(N)=O)cc(-c4cc(F)cc(CN5CCCC5)c4)cc23)CC1` [Example 289, 3-[1-(ethylsulfonyl)-4-piperidinyl]-5-[3-fluoro-5-(1-pyrrolidinylmethyl)phenyl]-1H-indole-7-carboxamide trifluoroacetate], the IC50 is ≤ 10 µM.

As to `CCS(=O)(=O)N1CCC(c2c[nH]c3c(C(N)=O)cc(-c4cc(F)cc(CN5CCOCC5)c4)cc23)CC1` [Example 290, 3-[1-(ethylsulfonyl)-4-piperidinyl]-5-[3-fluoro-5-(4-morpholinylmethyl)phenyl]-1H-indole-7-carboxamide trifluoroacetate], the IC50 was ≤ 10 µM.

In the case of `CCS(=O)(=O)N1CCC(c2c[nH]c3c(C(N)=O)cc(-c4cc(F)cc(CN5CCCCC5)c4)cc23)CC1` [Example 291, 3-[1-(ethylsulfonyl)-4-piperidinyl]-5-[3-fluoro-5-(1-piperidinylmethyl)phenyl]-1H-indole-7-carboxamide trifluoroacetate], the IC50 is ≤ 10 µM.

On to `CCS(=O)(=O)N1CCC(c2c[nH]c3c(C(N)=O)cc(-c4csc(CN5CCCCC5)n4)cc23)CC1` [Example 354, 3-[1-(ethylsulfonyl)-4-piperidinyl]-5-[2-(1-piperidinylmethyl)-1,3-thiazol-4-yl]-1H-indole-7-carboxamide], for which the IC50 is ≤ 10 µM.

On to `CCS(=O)(=O)N1CCC(c2c[nH]c3c(C(N)=O)cc(-c4cccc(CNS(=O)(=O)c5csc6ccccc56)c4)cc23)CC1` [Example 382, 5-(3-{[(1-benzothien-3-ylsulfonyl)amino]methyl}phenyl)-3-[1-(ethylsulfonyl)-4-piperidinyl]-1H-indole-7-carboxamide], for which the IC50 is ≤ 10 µM.

For the molecule `CCS(=O)(=O)N1CCC(c2c[nH]c3c(C(N)=O)cc(-c4cccc(CNS(=O)(=O)c5ccc(F)c(F)c5)c4)cc23)CC1` [Example 384, 5-[3-({[(3,4-difluorophenyl)sulfonyl]amino}methyl)phenyl]-3-[1-(ethylsulfonyl)-4-piperidinyl]-1H-indole-7-carboxamide], the IC50 is ≤ 10 µM.

For `CCS(=O)(=O)N1CCC(c2c[nH]c3c(C(N)=O)cc(-c4ccc(NS(=O)(=O)C5CCCC5)cc4)cc23)CC1` [Example 387, 5-{4-[(cyclopentylsulfonyl)amino]phenyl}-3-[1-(ethylsulfonyl)-4-piperidinyl]-1H-indole-7-carboxamide trifluoroacetate], the IC50 is ≤ 10 µM.
